Reference: patent US11939314B2, “Quinolin-2-one derivatives” (MERCK PATENT GMBH, priority 2016, dated 2024)
pIC50: −log10 of the molar value. Where a name gives a salt, the structure may show the parent alone.

Tests used:
[1] = target: T1, c-Kit(V654A) (Homo sapiens, UniProt P10721, V654A); experiment: c-Kit(V654A) assay; assay type: biochemical; conditions: recombinant human c-Kit aa 544-end, 200 μM ATP, 1.4E-06 means 1.4×10^−6, read-out: Inhibition (IC50) of c-KIT (V654A)
T1 construct: amino acids 544-end containing the V654A mutation; GST (N)
T1 sequence (P10721 544-976 V654A): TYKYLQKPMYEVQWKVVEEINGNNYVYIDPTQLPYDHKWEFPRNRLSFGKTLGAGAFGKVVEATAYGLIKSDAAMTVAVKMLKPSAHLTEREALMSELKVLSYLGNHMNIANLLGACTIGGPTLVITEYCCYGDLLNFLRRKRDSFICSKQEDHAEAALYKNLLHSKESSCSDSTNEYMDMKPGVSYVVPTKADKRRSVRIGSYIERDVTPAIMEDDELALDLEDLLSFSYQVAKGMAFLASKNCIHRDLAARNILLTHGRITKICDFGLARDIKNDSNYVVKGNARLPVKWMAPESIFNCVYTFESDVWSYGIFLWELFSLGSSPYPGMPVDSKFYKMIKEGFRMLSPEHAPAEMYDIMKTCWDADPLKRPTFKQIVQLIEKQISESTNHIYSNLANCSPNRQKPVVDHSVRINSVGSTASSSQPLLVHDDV
Method in brief: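 Radiometric filter-binding read-out: substrate 33P incorporation counted by scintillation after P30 filtermat washes in 75 mM phosphoric acid and methanol. Enzyme: N-GST recombinant human c-Kit aa 544-end carrying V654A.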

[2] = target: T2, PDGFRalpha(V561D) (Homo sapiens, UniProt P16234, V561D); experiment: PDGFRalpha(V561D) assay; assay type: biochemical; conditions: recombinant human PDGFRalpha aa 550-end, 200 μM ATP, 1.4E-06 means 1.4×10^−6, read-out: Inhibition (IC50) of PDGFRα (V561D)
T2 construct: recombinant human PDGFRalpha, amino acids 550end containing the V561 D mutation; 6His (N)
T2 sequence (P16234 550-1089 V561D): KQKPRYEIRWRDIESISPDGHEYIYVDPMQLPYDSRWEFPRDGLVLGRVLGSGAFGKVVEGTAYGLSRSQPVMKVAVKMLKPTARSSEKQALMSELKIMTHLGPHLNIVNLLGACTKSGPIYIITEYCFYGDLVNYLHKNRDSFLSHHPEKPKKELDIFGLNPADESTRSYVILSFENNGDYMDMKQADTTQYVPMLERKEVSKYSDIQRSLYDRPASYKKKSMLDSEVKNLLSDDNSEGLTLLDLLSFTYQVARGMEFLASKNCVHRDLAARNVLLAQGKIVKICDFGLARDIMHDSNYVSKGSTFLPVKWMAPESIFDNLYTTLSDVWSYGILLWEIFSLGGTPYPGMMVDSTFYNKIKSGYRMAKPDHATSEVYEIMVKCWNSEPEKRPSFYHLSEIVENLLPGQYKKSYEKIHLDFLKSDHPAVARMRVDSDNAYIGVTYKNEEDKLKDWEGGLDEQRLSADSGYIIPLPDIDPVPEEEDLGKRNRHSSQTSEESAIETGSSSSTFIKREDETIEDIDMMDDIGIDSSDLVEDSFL
Method in brief: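 Radiometric filter-binding assay: substrate phosphorylation by recombinant N-His-tagged human PDGFRα 550-end V561D was quenched with 3% phosphoric acid after 40 min at room temperature, then counted.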

pIC50 [1] | pIC50 [2] | Compound
7.51 | 8.92 | CO[C@@H]1C[C@H](CO)N(C(=O)c2ccc(-n3cc(-c4cc5cc(F)ccc5[nH]c4=O)cn3)cc2)C1 [A302, 6-fluoro-3-{1-[4-((2R,4R)-2-hydroxymethyl-4-methoxy-pyrrolidine-1-carbonyl)-phenyl]-1H-pyrazol-4-yl}-1H-quinolin-2-one]
7.77 | 6.62 | O=C(c1ccc(-n2cc(-c3cc4cc(F)c(F)cc4[nH]c3=O)nn2)cc1)N1C[C@H]2CNC[C@H]2C1 [A307, 6,7-difluoro-3-{1-[4-((cis)-hexahydro-pyrrolo[3,4-c]pyrrole-2-carbonyl)-phenyl]-1H-[1,2,3]triazol-4-yl}-1H-quinolin-2-one]
8.00 | 7.01 | O=C(c1ccc(-n2cc(-c3cc4cc(F)ccc4[nH]c3=O)nn2)cc1)N1C[C@H]2CNC[C@H]2C1 [A308, 6-fluoro-3-{1-[4-((cis)-hexahydro-pyrrolo[3,4-c]pyrrole-2-carbonyl)-phenyl]-1H-[1,2,3]triazol-4-yl}-1H-quinolin-2-one]
7.20 | 6.89 | N[C@@H]1CCCN(C(=O)c2ccc(-n3cc(-c4cc5cc(F)c(F)cc5[nH]c4=O)nn3)cc2)C1 [A309, 3-{1-[4-((R)-3-amino-piperidine-1-carbonyl)-phenyl]-1H-[1,2,3]triazol-4-yl}-6,7-difluoro-1H-quinolin-2-one hydrochloride]
7.36 | 7.07 | N[C@H]1CCCN(C(=O)c2ccc(-n3cc(-c4cc5cc(F)c(F)cc5[nH]c4=O)nn3)cc2)C1 [A310, 3-{1-[4-((S)-3-amino-piperidine-1-carbonyl)-phenyl]-1H-[1,2,3]triazol-4-yl}-6,7-difluoro-1H-quinolin-2-one hydrochloride]
7.21 | 6.54 | CN[C@H]1CCN(C(=O)c2ccc(-n3cc(-c4cc5cc(F)ccc5[nH]c4=O)nn3)cc2)C1 [A312, 6-fluoro-3-{1-[4-((S)-3-methylamino-pyrrolidine-1-carbonyl)-phenyl]-1H-[1,2,3]triazol-4-yl}-1H-quinolin-2-one hydrochloride]
7.14 | 6.74 | O=C(c1ccc(-n2cc(-c3cc4cc(F)ccc4[nH]c3=O)nn2)cc1)N1CCN[C@@H](CO)C1 [A314, 6-fluoro-3-{1-[4-((R)-3-hydroxymethyl-piperazine-1-carbonyl)-phenyl]-1H-[1,2,3]triazol-4-yl}-1H-quinolin-2-one hydrochloride]
6.70 | 5.85 | O=C(c1ccc(-n2cc(-c3cc4cc(F)ccc4[nH]c3=O)nn2)cc1)N1CCNC[C@H]1CO [A315, 6-fluoro-3-{1-[4-((S)-2-hydroxymethyl-piperazine-1-carbonyl)-phenyl]-1H-[1,2,3]triazol-4-yl}-1H-quinolin-2-one]
6.92 | 6.28 | O=C(c1ccc(-n2cc(-c3cc4cc(F)ccc4[nH]c3=O)nn2)cc1)N1CCNC[C@@H]1CO [A316, 6-fluoro-3-{1-[4-((R)-2-hydroxymethyl-piperazine-1-carbonyl)-phenyl]-1H-[1,2,3]triazol-4-yl}-1H-quinolin-2-one]
7.60 | 7.19 | CN(C)C[C@H]1CCCN1C(=O)c1ccc(-n2cc(-c3cc4cc(Cl)ccc4[nH]c3=O)nn2)cc1 [A322, 6-chloro-3-{1-[4-((R)-2-dimethylaminomethyl-pyrrolidine-1-carbonyl)-phenyl]-1H-[1,2,3]triazol-4-yl}-1H-quinolin-2-one]
7.85 | 6.66 | CN1C[C@@H]2CN(C(=O)c3ccc(-n4cc(-c5cc6cc(F)ccc6[nH]c5=O)nn4)cc3)C[C@@H]2C1 [A327, 6-fluoro-3-{1-[4-((cis)-5-methyl-hexahydro-pyrrolo[3,4-c]pyrrole-2-carbonyl)-phenyl]-1H-[1,2,3]triazol-4-yl}-1H-quinolin-2-one]
7.40 | 7.01 | CN(C)[C@@H]1CCCN(C(=O)c2ccc(-n3cc(-c4cc5cc(F)c(F)cc5[nH]c4=O)nn3)cc2)C1 [A328, 3-{1-[4-((R)-3-dimethylamino-piperidine-1-carbonyl)-phenyl]-1H-[1,2,3]triazol-4-yl}-6,7-difluoro-1H-quinolin-2-one]
7.32 | 7.68 | CN(C)[C@H]1[C@@H]2CN(C(=O)c3ccc(-n4cc(-c5cc6cc(F)ccc6[nH]c5=O)nn4)cc3)C[C@@H]21 [A330, 3-{1-[4-(6-dimethylamino-3-aza-bicyclo[3.1.0]hexane-3-carbonyl)-phenyl]-1H-[1,2,3]triazol-4-yl}-6-fluoro-1H-quinolin-2-one]

Continued, compound first:

Compound | pIC50 [1] | pIC50 [2]
CO[C@@H]1CN(C(=O)c2ccc(-n3cc(-c4cc5cc(F)ccc5[nH]c4=O)cn3)cc2)C[C@H]1OC [A300, 3-{1-[4-((3R,4R)-3,4-dimethoxy-pyrrolidine-1-carbonyl)-phenyl]-1H-pyrazol-4-yl}-6-fluoro-1H-quinolin-2-one] | 7.17 | 9.12
CO[C@@H]1C[C@@H](CO)N(C(=O)c2ccc(-n3cc(-c4cc5cc(F)ccc5[nH]c4=O)cn3)cc2)C1 [A301, 6-fluoro-3-{1-[4-((2S,4R)-2-hydroxymethyl-4-methoxy-pyrrolidine-1-carbonyl)-phenyl]-1H-pyrazol-4-yl}-1H-quinolin-2-one] | 7.37 | 9.00
CO[C@H]1CN(C(=O)c2ccc(-n3cc(-c4cc5cc(F)ccc5[nH]c4=O)cn3)cc2)C[C@@H]1OC [A303, 3-{1-[4-((3S,4S)-3,4-dimethoxy-pyrrolidine-1-carbonyl)-phenyl]-1H-pyrazol-4-yl}-6-fluoro-1H-quinolin-2-one] | 7.43 | 8.22
CN[C@@H]1CCN(C(=O)c2ccc(-n3cc(-c4cc5cc(F)ccc5[nH]c4=O)nn3)cc2)C1 [A311, 6-Fluoro-3-{1-[4-((R)-3-methylamino-pyrrolidine-1-carbonyl)-phenyl]-1H-[1,2,3]triazol-4-yl}-1H-quinolin-2-one hydrochloride] | 7.68 | 6.51
N[C@@H]1CCN(C(=O)c2ccc(-n3cc(-c4cc5cc(F)ccc5[nH]c4=O)nn3)cc2)C1 [A313, 3-{1-[4-((R)-3-amino-pyrrolidine-1-carbonyl)-phenyl]-1H-[1,2,3]triazol-4-yl}-6-fluoro-1H-quinolin-2-one hydrochloride] | 7.59 | 6.48
N[C@@H]1[C@H]2CN(C(=O)c3ccc(-n4cc(-c5cc6cc(F)ccc6[nH]c5=O)nn4)cc3)C[C@@H]12 [A317, 3-{1-[4-(6-amino-3-aza-bicyclo[3.1.0]hexane-3-carbonyl)-phenyl]-1H-[1,2,3]triazol-4-yl}-6-fluoro-1H-quinolin-2-one] | 6.92 | 5.85
CN(C)C[C@@H]1CCCN1C(=O)c1ccc(-n2cc(-c3cc4cc(Cl)ccc4[nH]c3=O)nn2)cc1 [A318, 6-chloro-3-{1-[4-((S)-2-dimethylaminomethyl-pyrrolidine-1-carbonyl)-phenyl]-1H-[1,2,3]triazol-4-yl}-1H-quinolin-2-one] | 7.70 | 7.77
CN(C)C[C@@H]1CCCN1C(=O)c1ccc(-n2cc(-c3cc4cc(F)ccc4[nH]c3=O)nn2)cc1 [A319, 3-{1-[4-((S)-2-dimethylaminomethyl-pyrrolidine-1-carbonyl)-phenyl]-1H-[1,2,3]triazol-4-yl}-6-fluoro-1H-quinolin-2-one] | 7.57 | 7.44
CN(C)C[C@H]1CCCN1C(=O)c1ccc(-n2cc(-c3cc4cc(F)c(F)cc4[nH]c3=O)nn2)cc1 [A320, 3-{1-[4-((R)-2-dimethylaminomethyl-pyrrolidine-1-carbonyl)-phenyl]-1H-[1,2,3]triazol-4-yl}-6,7-difluoro-1H-quinolin-2-one] | 7.32 | 7.00
CN(C)C[C@H]1CCCN1C(=O)c1ccc(-n2cc(-c3cc4cc(F)ccc4[nH]c3=O)nn2)cc1 [A321, 3-{1-[4-((R)-2-dimethylaminomethyl-pyrrolidine-1-carbonyl)-phenyl]-1H-[1,2,3]triazol-4-yl}-6-fluoro-1H-quinolin-2-one] | 7.36 | 6.43
CN(C)C[C@@H]1CCCN1C(=O)c1ccc(-n2cc(-c3cc4cc(F)c(F)cc4[nH]c3=O)nn2)cc1 [A323, 3-{1-[4-((S)-2-dimethylaminomethyl-pyrrolidine-1-carbonyl)-phenyl]-1H-[1,2,3]triazol-4-yl}-6,7-difluoro-1H-quinolin-2-one] | 6.66 | 6.66
CN(C)C[C@@H]1CCCN1C(=O)c1ccc(-n2cc(-c3cc4cc(F)ccc4[nH]c3=O)cn2)cc1 [A324, 3-{1-[4-((S)-2-dimethylaminomethyl-pyrrolidine-1-carbonyl)-phenyl]-1H-pyrazol-4-yl}-6-fluoro-1H-quinolin-2-one] | 6.57 | 8.14
CN(C)C[C@H]1CCCN1C(=O)c1ccc(-n2cc(-c3cc4cc(F)ccc4[nH]c3=O)cn2)cc1 [A325, 3-{1-[4-((R)-2-dimethylaminomethyl-pyrrolidine-1-carbonyl)-phenyl]-1H-pyrazol-4-yl}-6-fluoro-1H-quinolin-2-one] | 7.77 | 8.42
CN(C)C[C@@H]1CCN(C(=O)c2ccc(-n3cc(-c4cc5cc(F)ccc5[nH]c4=O)nn3)cc2)C1 [A326, 3-{1-[4-((S)-3-dimethylaminomethyl-pyrrolidine-1-carbonyl)-phenyl]-1H-[1,2,3]triazol-4-yl}-6-fluoro-1H-quinolin-2-one] | 6.74 | 6.03
CN(C)[C@H]1CCCN(C(=O)c2ccc(-n3cc(-c4cc5cc(F)c(F)cc5[nH]c4=O)nn3)cc2)C1 [A329, 3-{1-[4-((S)-3-dimethylamino-piperidine-1-carbonyl)-phenyl]-1H-[1,2,3]triazol-4-yl}-6,7-difluoro-1H-quinolin-2-one] | 7.14 | 7.04
